Measurements: patent US10780090B2, “Heteroaryl compounds useful as inhibitors of SUMO activating enzyme” (Millennium Pharmaceuticals, Inc., priority 2014, dated 2020)

Target: recombinant human SAE enzyme (Homo sapiens (Human), UniProt Q9UBT2)
Assay: SAE HTRF enzyme assay
Format: biochemical
Settings: for inhibition at 0.111 µM: read-out: Percent Inhibition
Procedure, shortened: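 Enzyme reaction: 50 mM HEPES pH 7.5, 5 mM MgCl2, 250 μM GSH, 0.05% BSA, 0.5 μM ATP, 0.01 μM Ubc9-GST, 0.125 μM Sumo-Flag, 0.11 nM SAE; 105 min, 24° C. Stop/detect, 2 h, then HTRF. % inh or IC50.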

recombinant human SAE enzyme, sequence (Q9UBT2 whole entry): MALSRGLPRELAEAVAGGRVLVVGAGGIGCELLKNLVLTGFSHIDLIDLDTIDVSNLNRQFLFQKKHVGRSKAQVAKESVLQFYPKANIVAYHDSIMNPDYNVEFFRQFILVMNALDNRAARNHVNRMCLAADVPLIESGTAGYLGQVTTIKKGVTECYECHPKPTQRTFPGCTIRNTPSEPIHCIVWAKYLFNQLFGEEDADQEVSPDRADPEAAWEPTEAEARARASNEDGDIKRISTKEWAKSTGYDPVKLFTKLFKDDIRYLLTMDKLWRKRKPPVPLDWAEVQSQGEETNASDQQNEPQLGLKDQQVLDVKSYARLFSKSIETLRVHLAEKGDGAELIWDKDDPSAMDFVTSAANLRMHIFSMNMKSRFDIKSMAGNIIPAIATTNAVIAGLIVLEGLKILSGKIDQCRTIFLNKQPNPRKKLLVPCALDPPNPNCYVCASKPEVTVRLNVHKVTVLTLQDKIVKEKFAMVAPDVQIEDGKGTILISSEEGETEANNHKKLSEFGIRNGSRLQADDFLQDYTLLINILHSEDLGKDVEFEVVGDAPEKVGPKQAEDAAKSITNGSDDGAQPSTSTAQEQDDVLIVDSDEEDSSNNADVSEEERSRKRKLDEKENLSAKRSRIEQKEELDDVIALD
recombinant human SAE enzyme, sequence (Q9UBE0 whole entry partner): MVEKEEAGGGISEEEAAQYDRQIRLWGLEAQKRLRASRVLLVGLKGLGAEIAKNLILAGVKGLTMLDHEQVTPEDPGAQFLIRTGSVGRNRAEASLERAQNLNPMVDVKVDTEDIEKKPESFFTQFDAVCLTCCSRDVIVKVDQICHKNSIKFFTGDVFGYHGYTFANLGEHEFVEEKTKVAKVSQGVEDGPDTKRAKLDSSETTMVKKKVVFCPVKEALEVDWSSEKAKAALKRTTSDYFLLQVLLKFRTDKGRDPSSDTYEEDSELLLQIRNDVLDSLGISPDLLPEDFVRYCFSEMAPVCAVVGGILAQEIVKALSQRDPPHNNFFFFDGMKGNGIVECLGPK

Compound | Percent Inhibition (Concentration 0.111 μM) | IC50 (class symbols A/B/C) [nM] | inhibition at 0.111 µM (Concentration 0.111 μM) [%] | Percent Inhibition (SAE inhibition at compound concentration 0.111 μM) [%] | IC50 (SAE inhibition, class symbols, legend in nM) [nM]
NS(=O)(=O)OC[C@H]1C[C@@H](Nc2ncncc2C(=O)c2cc(Cc3cccc(Cl)c3)c([C@@H]3CCCO3)s2)C[C@@H]1O (single isomer, unassigned) [I-41b, [(1R,2S,4R)-4-{[5-({4-(3-chlorobenzyl)-5-[(2S)-tetrahydrofuran-2-yl]-2-thienyl}carbonyl)pyrimidin-4-yl]amino}-2-hydroxycyclopentyl]methyl sulfamate or [(1R,2S,4R)-4-{[5-({4-(3-chlorobenzyl)-5-[(2R)-tetrahydrofuran-2-yl]-2-thienyl}carbonyl)pyrimidin-4-yl]amino}-2-hydroxycyclopentyl]methyl sulfamate] | 98 | < 10 | – | – | –
NS(=O)(=O)OC[C@H]1C[C@@H](Nc2ncncc2C(=O)c2cc([C@H](O)c3ccccc3)c(Cl)s2)C[C@@H]1O (mixture of isomers) [I-56, [(1R,2S,4R)-4-{[5-({5-chloro-4-[(R)-hydroxy(phenyl)methyl]-2-thienyl}carbonyl)pyrimidin-4-yl]amino}-2-hydroxycyclopentyl]methyl sulfamate and [(1R,2S,4R)-4-{[5-({5-chloro-4-[(S)-hydroxy(phenyl)methyl]-2-thienyl}carbonyl)pyrimidin-4-yl]amino}-2-hydroxycyclopentyl]methyl sulfamate] | 98 | < 10 | – | – | –
[(1R,2S,4R)-4-{[5-({5-chloro-4-[(1R)-1-hydroxy-2-phenylethyl]-2-thienyl}carbonyl)pyrimidin-4-yl]amino}-2-hydroxycyclopentyl]methyl sulfamate and [(1R,2S,4R)-4-{[5-({5-chloro-4-[(1S)-1-hydroxy-2-phenylethyl]-2-thienyl}carbonyl)pyrimidin-4-yl]amino}-2-hydroxycyclopentyl]methyl sulfamate [I-136] | 96 | < 10 | – | – | –
Cc1oc(C(=O)c2cncnc2N[C@@H]2C[C@H](COS(N)(=O)=O)[C@@H](O)C2)cc1C1OCCc2ccccc21 (single isomer, unassigned) [I-272a, {(1R,2S,4R)-4-[(5-{4-[(1R)-3,4-dihydro-1H-isochromen-1-yl]-5-methyl-2-furoyl}pyrimidin-4-yl)amino]-2-hydroxycyclopentyl}methyl sulfamate or {(1R,2S,4R)-4-[(5-{4-[(1S)-3,4-dihydro-1H-isochromen-1-yl]-5-methyl-2-furoyl}pyrimidin-4-yl)amino]-2-hydroxycyclopentyl}methyl sulfamate] | 96 | < 10 | – | – | –
NS(=O)(=O)OC[C@H]1C[C@@H](Nc2ncncc2C(=O)c2cc(C(O)c3cccc(Cl)n3)cs2)C[C@@H]1O (single isomer, unassigned) [I-29b, [(1R,2S,4R)-4-{[5-({4-[(S)-(6-chloropyridin-2-yl)(hydroxy)methyl]-2-thienyl}carbonyl)pyrimidin-4-yl]amino}-2-hydroxycyclopentyl]methyl sulfamate or [(1R,2S,4R)-4-{[5-({4-[(R)-(6-chloropyridin-2-yl)(hydroxy)methyl]-2-thienyl}carbonyl)pyrimidin-4-yl]amino}-2-hydroxycyclopentyl]methyl sulfamate] | 99 | < 10 | – | – | –
NS(=O)(=O)OC[C@H]1C[C@@H](Nc2ncncc2C(=O)c2ccc(-c3ccccc3Cl)o2)[C@H](O)[C@@H]1O [I-158, [(1R,2R,3S,4R)-4-({5-[5-(2-chlorophenyl)-2-furoyl]pyrimidin-4-yl}amino)-2,3-dihydroxycyclopentyl]methyl sulfamate] | – | – | 86 | – | –
Cc1sc(C(=O)c2cncnc2N[C@@H]2C[C@H](COS(N)(=O)=O)[C@@H](O)C2)cc1[C@H]1NCCc2ccc(Br)cc21 (single isomer, unassigned) [I-248a, [(1R,2S,4R)-4-{[5-({4-[(1S)-7-bromo-1,2,3,4-tetrahydroisoquinolin-1-yl]-5-methyl-2-thienyl}carbonyl)pyrimidin-4-yl]amino}-2-hydroxycyclopentyl]methyl sulfamate or [(1R,2S,4R)-4-{([5-({4-[(1R)-7-bromo-1,2,3,4-tetrahydroisoquinolin-1-yl]-5-methyl-2-thienyl}carbonyl)pyrimidin-4-yl]amino}-2-hydroxycyclopentyl]methyl sulfamate] | 99 | < 10 | – | – | –
Cc1ccccc1OCc1csc(C(=O)c2cncnc2N[C@@H]2C[C@H](COS(N)(=O)=O)[C@@H](O)C2)c1 [I-131, [(1R,2S,4R)-2-hydroxy-4-{[5-({4-[(2-methylphenoxy)methyl]-2-thienyl}carbonyl)pyrimidin-4-yl]amino}cyclopentyl]methyl sulfamate] | – | < 10 | 96 | – | –
NS(=O)(=O)OC[C@H]1C[C@@H](Nc2ncncc2C(=O)c2cc([C@@H]3OCCc4ccc(F)cc43)c(Cl)s2)C[C@@H]1O (single isomer, unassigned) [I-294, [(1R,2S,4R)-4-[[5-[5-chloro-4-[(1R)-7-fluoroisochroman-1-yl]thiophene-2-carbonyl]pyrimidin-4-yl]amino]-2-hydroxy-cyclopentyl]methyl sulfamate or [(1R,2S,4R)-4-[[5-[5-chloro-4-[(1S)-7-fluoroisochroman-1-yl]thiophene-2-carbonyl]pyrimidin-4-yl]amino]-2-hydroxy-cyclopentyl]methyl sulfamate] | – | – | – | 99 | < 10
NS(=O)(=O)OC[C@H]1C[C@@H](Nc2ncncc2C(=O)c2cc(Cc3cccc(Br)c3)cs2)C[C@@H]1O [I-59, {(1R,2S,4R)-4-[(5-{[4-(3-Bromobenzyl)-2-thienyl]carbonyl}pyrimidin-4-yl)amino]-2-hydroxycyclopentyl}methyl sulfamate] | – | – | 99 | – | –
NS(=O)(=O)OC[C@H]1C[C@@H](Nc2ncncc2C(=O)c2cc(CSc3ccccc3Cl)cs2)C[C@@H]1O [I-147, [(1R,2S,4R)-4-({5-[(4-{[(2-chlorophenyl)sulfanyl]methyl}-2-thienyl)carbonyl]pyrimidin-4-yl}amino)-2-hydroxycyclopentyl]methyl sulfamate] | – | < 10 | 94 | – | –
NS(=O)(=O)OC[C@H]1C[C@@H](Nc2ncncc2C(=O)c2cc(COc3ccc(Cl)cc3)cs2)C[C@@H]1O [I-163, [(1R,2S,4R)-4-{[5-({4-[(4-chlorophenoxy)methyl]-2-thienyl}carbonyl)pyrimidin-4-yl]amino}-2-hydroxycyclopentyl]methyl sulfamate] | – | 10 to 100 | 92 | – | –
NS(=O)(=O)OC[C@H]1C[C@@H](Nc2ncncc2C(=O)c2cc([C@H](O)c3cccc(Cl)n3)c(Cl)s2)C[C@@H]1O (single isomer, unassigned) [I-2b, [(1R,2S,4R)-4-{[5-({5-chloro-4-[(S)-(6-chloropyridin-2-yl)(hydroxy)methyl]-2-thienyl}carbonyl)pyrimidin-4-yl]amino}-2-hydroxycyclopentyl]methyl sulfamate or [(1R,2S,4R)-4-{[5-({5-chloro-4-[(R)-(6-chloropyridin-2-yl)(hydroxy)methyl]-2-thienyl}carbonyl)pyrimidin-4-yl]amino}-2-hydroxycyclopentyl]methyl sulfamate] | 61 | 10 to 100 | – | – | –
